In patent US11584765B2 (priority 2017, dated 2023) one finds ED50 data, which are given here for 17 compounds.

The test system of the assay is C57BL/6 mice. Briefly: animal or person. Format: in vivo. Conditions: Mus musculus, sc, 0.5 h, s.c. administration, 30 min, 55° C. water, read-out: ED50 (mg/kg) at 30 min on C57BL/6 mice in Warm-water Tail-flick Test. (Thermal pain tests record how soon the animal reacts.)

In the case of `Cn1ccc(CN2CCC(CCc3ccccc3)(C3CCCO3)C2)c1` (centres unmarked) [Compound 224, 1-methyl-3-((3-phenethyl-3-(tetrahydrofuran-2-yl)pyrrolidin-1-yl)methyl)-1H-pyrrole], the ED50 is > 10 mg/kg.
On to `c1ccc(CCC2(C3CCCO3)CCN(Cc3ccccn3)C2)cc1` (centres unmarked) [Compound 225, 2-((3-phenethyl-3-(tetrahydrofuran-2-yl)pyrrolidin-1-yl)methyl)pyridine], for which the ED50 was > 10 mg/kg.
On to `c1ccc(CCC2(C3CCCO3)CCN(Cc3cccnc3)C2)cc1` (centres unmarked) [Compound 226, 3-((3-phenethyl-3-(tetrahydrofuran-2-yl)pyrrolidin-1-yl)methyl)pyridine], for which the ED50 was < 10 mg/kg.
With `Cn1cccc1CN1CCC(CCc2ccccc2)(C2CCCO2)C1` (centres unmarked) [Compound 227, 1-methyl-2-((3-phenethyl-3-(tetrahydrofuran-2-yl)pyrrolidin-1-yl)methyl)-1H-pyrrole] the figure was > 10 mg/kg; with `c1ccc(CCC2(C3CCCO3)CCN(Cc3ccnn3-c3ccccc3)C2)cc1` (centres unmarked) [Compound 228, 5-((3-phenethyl-3-(tetrahydrofuran-2-yl)pyrrolidin-1-yl)methyl)-1-phenyl-1H-pyrazole], > 10 mg/kg.
Consider `c1ccc(CCC2(C3CCCO3)CCN(CC3CCCO3)C2)cc1` (centres unmarked) [Compound 229, 3-phenethyl-3-(tetrahydrofuran-2-yl)-1-((tetrahydrofuran-2-yl)methyl)pyrrolidine], for which the ED50 was > 10 mg/kg.
With `c1ccc(CCC2(C3CCCO3)CCN(CC3CCOC3)C2)cc1` (centres unmarked) [Compound 230, 3-phenethyl-3-(tetrahydrofuran-2-yl)-1-((tetrahydrofuran-3-yl)methyl)pyrrolidine] the figure was > 10 mg/kg.
As for `Cc1ncc(CN2CCC(CCc3ccccc3)(C3CCCO3)C2)s1` (centres unmarked) [Compound 231, 2-methyl-5-((3-phenethyl-3-(tetrahydrofuran-2-yl)pyrrolidin-1-yl)methyl)thiazole], the ED50 is < 10 mg/kg.
With `CCOCC1(CCc2ccsc2)CCN(Cc2cnn(C)c2)CC1` [Compound 232, 4-(ethoxymethyl)-1-((1-methyl-1H-pyrazol-4-yl)methyl)-4-(2-(thiophen-3-yl)ethyl)piperidine] the figure was < 10 mg/kg; with `CCOCC1(CCc2cccs2)CCN(Cc2cnn(C)c2)CC1` [Compound 233, 4-(ethoxymethyl)-1-((1-methyl-1H-pyrazol-4-yl)methyl)-4-(2-(thiophen-2-yl)ethyl)piperidine], < 10 mg/kg; with `CCOC[C@]1(CCc2ccccc2)CCN(Cc2cnn(C)c2)C1` [Compound 234, (R)-4-((3-(ethoxymethyl)-3-phenethylpyrrolidin-1-yl)methyl)-1-methyl-1H-pyrazole], > 10 mg/kg.
With `CCOC[C@@]1(CCc2ccccc2)CCN(Cc2cnn(C)c2)C1` [Compound 235, (S)-4-((3-(ethoxymethyl)-3-phenethylpyrrolidin-1-yl)methyl)-1-methyl-1H-pyrazole] the figure was < 10 mg/kg; with `c1ccc(CCC2(C3CCCO3)CCN(Cc3ccncc3)C2)cc1` (centres unmarked) [Compound 236, 4-((3-phenethyl-3-(tetrahydrofuran-2-yl)pyrrolidin-1-yl)methyl)pyridine], > 10 mg/kg; with `c1ccc(CCC2(C3CCCO3)CCN(Cc3cncnc3)C2)cc1` (centres unmarked) [Compound 237, 5-((3-phenethyl-3-(tetrahydrofuran-2-yl)pyrrolidin-1-yl)methyl)pyrimidine], > 10 mg/kg.
Take `c1ccc(CCC2(C3CCCO3)CCN(Cc3cnccn3)C2)cc1` (centres unmarked) [Compound 238, 2-((3-phenethyl-3-(tetrahydrofuran-2-yl)pyrrolidin-1-yl)methyl)pyrazine]: the ED50 is > 10 mg/kg.
With `CC(=O)Nc1ccc(CN2CCC(CCc3ccccc3)(COCc3ccccc3)C2)cc1` (centres unmarked) [Compound 239, N-(4-((3-(benzyloxymethyl)-3-phenethylpyrrolidin-1-yl)methyl)phenyl)acetamide] the figure was > 10 mg/kg; with `Cn1cc(CN2CCC(CCc3ccccc3)(COCc3ccccc3)C2)cn1` (centres unmarked) [Compound 240, 4-((3-(benzyloxymethyl)-3-phenethylpyrrolidin-1-yl)methyl)-1-methyl-1H-pyrazole], > 10 mg/kg.
